Active and inactive are the calls of the source. The rule behind the calls is not given here.
System: GENE-TOX genotoxicity assays, various organisms and cells
Test: GENE-TOX mutagenicity studies
Details: for call: Assay Type: In vivo carcinogenicity studies
[1] = Species/Cell Type: Nonhuman, Assay Code: CCGT, Evaluation Type: Evaluation A (Pre-1980)
[2] = Species/Cell Type: Syrian hamster embryo (SHE) cells, Assay Type: Cell transformation, clonal assay, Assay Code: CTC+, Evaluation Type: Evaluation A (Pre-1980)
[3] = Species/Cell Type: Saccharomyces cerevisiae, Assay Type: Reverse gene mutation, Assay Code: YERT, Evaluation Type: Evaluation A (Pre-1980)
[4] = Species/Cell Type: Chinese hamster lung (V79) cells, Assay Type: Forward gene mutation at the HPRT or ouabain locus, Assay Code: V79+, Evaluation Type: Evaluation A (Pre-1980)
[5] = Species/Cell Type: Human, Assay Type: Sister-chromatid exchange (SCE) in vitro, Assay Code: SC1+D, Dose Response: With dose response, Evaluation Type: Evaluation B (Post-1980)
[6] = Species/Cell Type: Nonhuman, Assay Type: Sister-chromatid exchange (SCE) in vitro, Assay Code: SC2+D, Dose Response: With dose response, Evaluation Type: Evaluation B (Post-1980)
[7] = Species/Cell Type: Salmonella typhimurium (one or more of the five standard strains: TA98, TA100, TA1535, TA1537, and TA1538), Assay Type: Histidine reverse gene mutation, Ames assay, Assay Code: SAL+, Evaluation Type: Evaluation A (Pre-1980)
[8] = Species/Cell Type: Escherichia coli polA (W3119 vs P3478), Assay Type: Rec-assay, DNA effects (bacterial DNA repair), Assay Code: RE1+, Evaluation Type: Evaluation A (Pre-1980)
[9] = Species/Cell Type: Nonhuman, Assay Code: CCG+, Evaluation Type: Evaluation A (Pre-1980)
[10] = Species/Cell Type: Syrian hamster embryo (SA7/SHE) cells, Assay Type: Cell transformation, viral enhanced, Assay Code: CT7-, Evaluation Type: Evaluation A (Pre-1980)
[11] = Species/Cell Type: Arabidopsis species, Assay Type: Gene mutation, Assay Code: ARM+D, Dose Response: With dose response, Evaluation Type: Evaluation A (Pre-1980)
[12] = Species/Cell Type: Drosophila melanogaster, Assay Type: Sex-linked recessive lethal gene mutation, Assay Code: SRLT, Evaluation Type: Evaluation A (Pre-1980)

`CO[C@H](C(=O)[C@@H](O)[C@@H](C)O)[C@@H]1Cc2cc3cc(O[C@H]4C[C@@H](O[C@H]5C[C@@H](O)[C@H](O)[C@@H](C)O5)[C@H](O)[C@@H](C)O4)c(C)c(O)c3c(O)c2C(=O)[C@H]1O[C@H]1C[C@@H](O[C@H]2C[C@@H](O[C@H]3C[C@](C)(O)[C@H](O)[C@@H](C)O3)[C@@H](O)[C@@H](C)O2)[C@H](O)[C@@H](C)O1` was tested, and the mutagenic call (Species/Cell Type: Chinese hamster ovary (CHO) cells, Assay Type: Forward gene mutation at the HPRT locus, Assay Code: CHO+, Evaluation Type: Evaluation B (Post-1980)) was “active; positive”.
With `CC(=O)[O-].CC(=O)[O-].[Cd+2]` the call [1] was “no conclusion”, the mutagenic call (Species/Cell Type: Nonhuman, Assay Type: Sister-chromatid exchange (SCE) in vitro, Assay Code: SC2-, Evaluation Type: Evaluation B (Post-1980)) was “inactive; negative” and the mutagenic call (Species/Cell Type: Syrian hamster embryo (SA7/SHE) cells, Assay Type: Cell transformation, viral enhanced, Assay Code: CT7+, Evaluation Type: Evaluation A (Pre-1980)) was “active; positive”. The mutagenic call [2] was “active; positive”.
For `CCCOc1ccc(CC(=O)OC)cc1CSC(=N)N`, the mutagenic call [3] was “no conclusion”.
In the case of `COc1cc(/C=N/NC(=O)COc2ccc(Br)cc2CN(C)C)ccc1O`, the mutagenic call [3] is reported as “no conclusion”.
For `c1ccc2c(c1)cc1c3c2ccc2cccc(c23)C2OC12` (centres undefined), the mutagenic call [4] was “active; positive”, the mutagenic call (Species/Cell Type: Human diploid fibroblasts, Assay Type: Unscheduled DNA synthesis (UDS) in vitro, DNA effects, Assay Code: UDH+, Evaluation Type: Evaluation A (Pre-1980)) was “active; positive” and the mutagenic call [5] was “active; positive”. The mutagenic call (Species/Cell Type: Mouse prostate cells, Assay Type: Cell transformation, Assay Code: CTM+, Evaluation Type: Evaluation A (Pre-1980)) was “active; positive”, the call [1] was “no conclusion” and the mutagenic call [6] was “active; positive”. The mutagenic call (Species/Cell Type: Saccharomyces cerevisiae, Assay Type: Mitotic recombination or gene conversion, Assay Code: YEH+, Evaluation Type: Evaluation A (Pre-1980)) was “active; positive”, the mutagenic call [7] was “active; positive” and the mutagenic call [2] was “active; positive”.
`C=O` was tested, and the mutagenic call (Species/Cell Type: Chinese hamster ovary (CHO) cells, Assay Type: Forward gene mutation at the HPRT locus, Assay Code: CHOT, Evaluation Type: Evaluation B (Post-1980)) was “no conclusion”, the mutagenic call (Species/Cell Type: Drosophila melanogaster, Assay Type: Sex-linked recessive lethal gene mutation, Assay Code: SRL+, Evaluation Type: Evaluation A (Pre-1980)) was “active; positive” and the mutagenic call (Species/Cell Type: Drosophila melanogaster, Sex: Male, Assay Type: Heritable translocation test, chromosome aberrations, Assay Code: DHT+, Evaluation Type: Evaluation A (Pre-1980)) was “active; positive”. The mutagenic call [8] was “active; positive”, the mutagenic call (Species/Cell Type: Human diploid fibroblasts, Assay Type: Unscheduled DNA synthesis (UDS) in vitro, DNA effects, Assay Code: UDHT, Evaluation Type: Evaluation A (Pre-1980)) was “no conclusion” and the mutagenic call (Species/Cell Type: Human lymphocytes, Assay Type: Sister-chromatid exchange (SCE) in vitro, Assay Code: SCL+D, Dose Response: With dose response, Evaluation Type: Evaluation B (Post-1980)) was “active; positive”. For the same molecule, the mutagenic call (Species/Cell Type: Human lymphocytes, Assay Type: Sister-chromatid exchange (SCE) in vivo, Assay Code: SCY+, Evaluation Type: Evaluation B (Post-1980)) was “active; positive”, the mutagenic call [5] was “active; positive” and the mutagenic call (Species/Cell Type: Mammalian polychromatic erythrocytes, Assay Type: Micronucleus test, chromosome aberrations, Assay Code: MNTT, Evaluation Type: Evaluation B (Post-1980)) was “no conclusion”. For the same molecule, the mutagenic call (Species/Cell Type: Neurospora crassa, Assay Type: Reverse gene mutation, Assay Code: NER+, Evaluation Type: Evaluation A (Pre-1980)) was “active; positive”, the call [9] was “active; positive” and the mutagenic call [6] was “active; positive”. The mutagenic call (Species/Cell Type: Saccharomyces cerevisiae, Assay Type: Mitotic recombination or gene conversion, Assay Code: YEC+, Evaluation Type: Evaluation A (Pre-1980)) was “active; positive” and the mutagenic call (Species/Cell Type: Saccharomyces cerevisiae, Assay Type: Reverse gene mutation, Assay Code: YER+, Evaluation Type: Evaluation A (Pre-1980)) was “active; positive”.
`C1N2CN3CN1CN(C2)C3` was tested, and the mutagenic call [8] was “active; positive”.
In the case of `O=C1NCCN1/N=C/c1ccc([N+](=O)[O-])o1`, the call [9] is reported as “active; positive”.
In the case of `C1COCCO1`, the call [9] is reported as “active; positive” and the mutagenic call [10] is reported as “inactive; negative”.
In the case of `Cn1c(=O)c2c(n(C)c1=O)n(C)c(=O)n2C`, the mutagenic call (Species/Cell Type: Allium cepa, Assay Type: Chromosome aberrations, Assay Code: ALC+D, Dose Response: With dose response, Evaluation Type: Evaluation A (Pre-1980)) is reported as “active; positive”.
`CN=C(N)N` was tested, and the mutagenic call (Species/Cell Type: Human diploid fibroblasts, Assay Type: Unscheduled DNA synthesis (UDS) in vitro, DNA effects, Assay Code: UDH-, Evaluation Type: Evaluation A (Pre-1980)) was “inactive; negative”.
`COc1ccc(N2CCN(c3ccc([N+](=O)[O-])c4no[n+]([O-])c34)CC2)cc1` was tested, and the mutagenic call [7] was “active; positive”.
In the case of `CS(=O)(=O)OCCO`, the mutagenic call [11] is reported as “active; positive” and the mutagenic call (Species/Cell Type: Hordeum vulgare (barley), Assay Type: Chromosome aberrations, Assay Code: HOC+D, Dose Response: With dose response, Evaluation Type: Evaluation A (Pre-1980)) is reported as “active; positive”.
In the case of `CCCCc1nc(Cl)c(CO)n1Cc1ccc(-c2ccccc2-c2nnn[nH]2)cc1`, the mutagenic call [12] is reported as “no conclusion” and the mutagenic call (Species/Cell Type: Drosophila melanogaster, Sex: Male, Assay Type: Heritable translocation test, chromosome aberrations, Assay Code: DHTT, Evaluation Type: Evaluation A (Pre-1980)) is reported as “no conclusion”.
In the case of `CN(N=O)C(=O)N[C@@H](C=O)[C@@H](O)[C@H](O)[C@H](O)CO`, the mutagenic call [11] is reported as “active; positive”, the mutagenic call [4] is reported as “active; positive” and the mutagenic call [8] is reported as “active; positive”. For the same molecule, the call [9] was “active; positive”, the mutagenic call (Species/Cell Type: Nonhuman, Assay Type: Sister-chromatid exchange (SCE) in vivo, Assay Code: SC3+, Evaluation Type: Evaluation B (Post-1980)) was “active; positive” and the mutagenic call [7] was “active; positive”. The mutagenic call (Species/Cell Type: Salmonella typhimurium, Assay Type: Forward and reverse gene mutation, body fluid assay, Assay Code: BFU+, Evaluation Type: Evaluation A (Pre-1980)) was “active; positive” and the mutagenic call (Species/Cell Type: Salmonella typhimurium, Assay Type: Forward and reverse gene mutation, host-mediated assay, Assay Code: HMA+, Evaluation Type: Evaluation A (Pre-1980)) was “active; positive”.
With `Oc1c(Br)cc(Br)c2cccnc12` the mutagenic call (Species/Cell Type: Salmonella typhimurium (one or more of the five standard strains: TA98, TA100, TA1535, TA1537, and TA1538), Assay Type: Histidine reverse gene mutation, Ames assay, Assay Code: SALT, Evaluation Type: Evaluation A (Pre-1980)) was “no conclusion”.
In the case of `O=C1CCC(=O)O1`, the mutagenic call (Species/Cell Type: Escherichia coli polA (W3110 vs P3478), Assay Type: Rec-assay, DNA effects (bacterial DNA repair), Assay Code: RE2-, Evaluation Type: Evaluation A (Pre-1980)) is reported as “inactive; negative”, the mutagenic call (Species/Cell Type: Escherichia coli polA (W3119 vs P3478), Assay Type: Rec-assay, DNA effects (bacterial DNA repair), Assay Code: RE1-, Evaluation Type: Evaluation A (Pre-1980)) is reported as “inactive; negative” and the mutagenic call (Species/Cell Type: Mouse lymphoma (L5178Y) cells, Assay Type: Forward gene mutation at the thymidine kinase (TK) locus, chromosome aberrations, Assay Code: L51-, Evaluation Type: Evaluation A (Pre-1980)) is reported as “inactive; negative”. The call (Species/Cell Type: Nonhuman, Assay Code: CCG+L, Evaluation Type: Evaluation A (Pre-1980)) was “active; positive”, the mutagenic call (Species/Cell Type: Saccharomyces cerevisiae, Assay Type: Mitotic recombination or gene conversion, Assay Code: YEH-, Evaluation Type: Evaluation A (Pre-1980)) was “inactive; negative” and the mutagenic call (Species/Cell Type: Salmonella typhimurium (one or more of the five standard strains: TA98, TA100, TA1535, TA1537, and TA1538), Assay Type: Histidine reverse gene mutation, Ames assay, Assay Code: SAL-, Evaluation Type: Evaluation A (Pre-1980)) was “inactive; negative”. For the same molecule, the mutagenic call (Species/Cell Type: Salmonella typhimurium, Assay Type: Forward and reverse gene mutation, host-mediated assay, Assay Code: HMA-, Evaluation Type: Evaluation A (Pre-1980)) was “inactive; negative” and the mutagenic call [2] was “active; positive”.
With `O=C(O)CCC(=O)OC[C@@H](NC(=O)C(Cl)Cl)[C@H](O)c1ccc([N+](=O)[O-])cc1` the mutagenic call (Species/Cell Type: Mammalian polychromatic erythrocytes, Assay Type: Micronucleus test, chromosome aberrations, Assay Code: MNTT, Evaluation Type: Evaluation A (Pre-1980)) was “no conclusion” and the mutagenic call (Species/Cell Type: Mouse, Sex: Male, Assay Type: Sperm morphology, Assay Code: SPI-, Evaluation Type: Evaluation A (Pre-1980)) was “inactive; negative”.
In the case of `Oc1cc2c3ccccc3cc3ccc4cccc1c4c32`, the mutagenic call (Species/Cell Type: Chinese hamster lung (V79) cells, Assay Type: Forward gene mutation at the HPRT or ouabain locus, Assay Code: V79-, Evaluation Type: Evaluation A (Pre-1980)) is reported as “inactive; negative”, the call [1] is reported as “no conclusion” and the mutagenic call [7] is reported as “active; positive”.
`[Li+]` was tested, and the mutagenic call (Species/Cell Type: Bacillus subtilis (H17 vs M45), Assay Type: Rec-assay, spot test, DNA effects (bacterial DNA repair), Assay Code: REW-, Evaluation Type: Evaluation A (Pre-1980)) was “inactive; negative” and the mutagenic call [10] was “inactive; negative”.
With `Cn1c([N+](=O)[O-])cnc1/C=N/N1CC(CN2CCOCC2)OC1=O` (centres undefined) the mutagenic call [12] was “no conclusion”, the mutagenic call (Species/Cell Type: Mouse, Sex: Female, Assay Type: Spot test, gene mutation, Assay Code: MST+, Evaluation Type: Evaluation A (Pre-1980)) was “active; positive” and the mutagenic call (Species/Cell Type: Saccharomyces cerevisiae, Assay Type: Mitotic recombination or gene conversion, Assay Code: YEC-, Evaluation Type: Evaluation A (Pre-1980)) was “inactive; negative”.
`Cn1sc(Cl)cc1=O` was tested, and the mutagenic call (Species/Cell Type: Mammalian polychromatic erythrocytes, Assay Type: Micronucleus test, chromosome aberrations, Assay Code: MNT-, Evaluation Type: Evaluation B (Post-1980)) was “inactive; negative”.

Source: PubChem BioAssay AID1259408 (Genetic Toxicology Data Bank (GENE-TOX), 2018)
